Source: patent US9809861B2, “Method of evaluating inhibitory effect on damp-dry malodor” (Kao Corporation, priority 2012, dated 2017)

What was measured:
[1] = system: Δ9desaturase gene; test: Change in expression amount of Δ9desaturase gene in the presence of test substance (real time PCR); assay type: cell-based, Moraxella sp. KMC4-1; details: for Change in the expression amount of Δ9desaturase gene: Substance (1) 10 ppm, (2)(3)(5)(6) 100 ppm, (4) 500 ppm
Protocol: The substances (1) to (7) described below each were added to 4 mL SCD liquid medium (manufactured by NIHON PHARMACEUTICAL CO., LTD). As a control, a medium system not added with any test substance was also prepared. To these medium, one platinum loop of precultured Moraxella sp. KMC4-1 was inoculated and cultured for 24 hours at 35 C while shaking (160 rpm).
To the cell liquid cultured for 24 hours, 10 mg of 16-methyloctadecanoic acid was added as a sebaceous dirt component. After culturing again for 6 hours at 35° C., the cells were collected. As a control, a system not added with a sebaceous dirt component was also cultured and cells were collected therefrom.
An RNA sample was prepared from the collected cells in the same manner as in the test example 1.
By mixing 2 μL solution of the prepared template diluted ×20 with distilled sterile water, 12.5 μL of TaKaRa SYBR Premix EX Taq (trade name, manufactured by Takara Bio Inc.), 0.5 μL of the primer (des_F1, […]) containing the oligonucleotide having the base sequence set forth in SEQ ID NO: 13, 0.5 μL of the primer (des_R1, […]) containing the oligonucleotide having the base sequence set forth in SEQ ID NO: 14 and 9.5 μL of distilled sterile water, 25 μL reaction solution for real time PCR was prepared.
Reaction solutions for real time PCR were prepared in the same manner as above, except that, instead of the primer set including the primer containing the oligonucleotide having the base sequence set forth in SEQ ID NO: 13 and the primer containing the oligonucleotide having the base sequence set forth in SEQ ID NO: 14, the primer set described in Tables 11 to 13 was used.
The reaction solutions for real time PCR each were subjected to a gene amplification by using an automatic gene amplification thermal cycler DICE Real time system II (manufactured by Takara Bio Inc.), and then the expression amount of each of the fatty acid desaturase gene (the Δ9desaturase gene) and the β oxidation-relating enzyme genes (the fadB gene and the fadD gene) was measured. PCR reaction conditions were 40 cycles of (i) a thermal denaturation reaction at 95° C. for 20 seconds, and (ii) an annealing reaction and an elongation reaction at 60° C. for 30 seconds.
By having the gene expression of 16S rRNA as an internal standard, and having the gene expression amount when adding no sebaceous dirt component and no test substance as a reference value, change in expression amount of each gene was calculated relative to the reference value. A sample, in which the expression amount of the gene was ½ times or less the reference value, was rated as “A”; a sample, in which the expression amount of the gene was more than ½ times and ⅔ times or less the reference value, was rated as “B”; and a sample, in which the expression amount of the gene was more than ⅔ times the reference value, was rated as “C”.

[2] = system: Moraxella sp. KMC4-1; test: Quantification of 4M3H produced in model examination cloth (LC-FL); assay type: cell-based; details: for Ratio of suppressing 4M3H production: cotton cloth with 0.5 mg 14-methylhexadecanoic acid, 24 hours, 37° C., relative to no test substance, Substance (1) 10 ppm, (2)(3)(5)(6) 100 ppm, (4) 500 ppm; for 4M3H production inhibition ratio: summary of Table 14
Protocol: Subsequently, by using Moraxella sp. KMC4-1, which is one kind of the microorganisms which produce damp-dry malodor-causing substances, sensory evaluation of the inhibitory effect on damp-dry malodor by the test substance and measurement of production amount of 4M3H as one kind of the damp-dry malodor-causing substances were carried out.
Moraxella sp. KMC4-1 was inoculated as a test microbe onto SCD-LP agar medium (manufactured by Wako Pure Chemical Industries, Ltd.) and cultured for 1 to 2 weeks at room temperature to give a pre-culture plate. Colony surface was scraped off from the pre-culture plate, suspended in 5 mL of physiological saline, and OD600 was adjusted to 1.0 (about 10^8 CFU/mL).
A cotton jersey cloth obtained in a constant state after sterilization and drying at 25° C., 40% RH (cotton jersey manufactured by Shikisensha Colo., LTD., without silket finish) was cut to a square of 2 cm×2 cm. To the cloth, a solution prepared by dissolving 0.5 mg of 14-methylhexadecanoic acid, as a sebaceous dirt component, in 0.1 mL methanol, was applied. Then, methanol was dried to solid, to give a model examination cloth.
[…] It was then dried for 2 hours at room temperature to dry methanol. Thereafter, 0.1 mL of the microbe suspension was coated onto the model examination cloth, and cultured for 24 hours in a petri dish using an incubator at 37° C. with relative humidity of 70%, to obtain a microbe-fixed cloth.
Further, the model examination cloth was analyzed by using LC-FL (liquid chromatography apparatus: HITACHI ELITE LaChrom (trade name, manufactured by Hitachi, Ltd.), column: Lichrosphere 100 RP-8(e) (trade name, manufactured by Agilent Technologies, Inc., 5 μm×125 mm×4 mmφ), column temperature: 40° C., eluent: a mixed solution of acetonitrile/water=7/3 (volume ratio), flow rate: 1.0 mL/min, detector: excitation wavelength (365 nm), measurement wavelength (412 nm)), and thereby quantification of 4M3H thus produced in the model examination cloth was carried out. Ratio of the produced 4M3H amount relative to the 4M3H production amount when no test substance was added was calculated, and then ratio of suppressing 4M3H production was calculated.

[3] = system: Moraxella sp. KMC4-1; test: Bactericidal test; assay type: cell-based; details: 10^6 CFU/mL, 2 hours, 25° C.; Substance (1) 10 ppm, (2)(3)(5)(6) 100 ppm, (4) 500 ppm
Protocol: To 5 mL of a test solution in which the substances (1) to (7) each were added so as to be the final concentration described in Table 15, the precultured Moraxella sp. KMC4-1 was inoculated so as to be the concentration of 10^6 CFU/mL and cultured for 2 hours at 25° C. while shaking (160 rpm). After that, it was subjected to serial dilution using LP dilution solution (NIHON PHARMACEUTICAL CO., LTD). Then, by using SCD-LP agar medium (NIHON PHARMACEUTICAL CO., LTD), the number of bacteria remained alive was determined.
As for the growth-inhibitory and the bactericidal effect, the evaluation was made as follows: compared to the control, when there was the bacteria number decrease of log 3 or more, it was rated as “A”; when there was the bacteria number decrease of log 1 or more but less than log 3, it was rated as “B”; and when there was the bacteria number decrease of less than log 1, it was rated as “C”.

[4] = primers SEQ ID NO: 13 / 14, 16-methyloctadecanoic acid added, relative to reference without sebaceous dirt component and test substance

| SMILES | Change in the expression amount of Δ9desaturase gene [1, 4] | Change in the expression amount of Δ9desaturase gene ([1]; primers SEQ ID NO: 15 / 16) | Change in the expression amount of Δ9desaturase gene ([1]; primers SEQ ID NO: 17 / 18) | Change in the expression amount of Δ9desaturase gene ([1]; primers SEQ ID NO: 19 / 20) | Change in the expression amount of Δ9desaturase gene ([1]; primers SEQ ID NO: 21 / 22) | Change in the expression amount of Δ9desaturase gene ([1]; primers SEQ ID NO: 23 / 24) | Ratio of suppressing 4M3H production [2] | 4M3H production inhibition ratio [2] | Bactericidal effect [3] | expression amount of the Δ9desaturase gene by the microorganisms ([1]; summary of Table 11) |
| --- | --- | --- | --- | --- | --- | --- | --- | --- | --- | --- |
| CC(=O)OC(C)(C)Cc1ccccc1 [Substance (2)] | C (the expression amount of the gene was more than ⅔ times the reference value) | B (the expression amount of the gene was more than ½ times and ⅔ times or less the reference value) | B (the expression amount of the gene was more than ½ times and ⅔ times or less the reference value) | B (the expression amount of the gene was more than ½ times and ⅔ times or less the reference value) | C (the expression amount of the gene was more than ⅔ times the reference value) | C (the expression amount of the gene was more than ⅔ times the reference value) | 100% | high | C (the bacteria number decrease of less than log 1) |  |
| CCCCCCCC/C=C\CCCCCCCC(=O)O [Substance (4)] | C (the expression amount of the gene was more than ⅔ times the reference value) | C (the expression amount of the gene was more than ⅔ times the reference value) | C (the expression amount of the gene was more than ⅔ times the reference value) | C (the expression amount of the gene was more than ⅔ times the reference value) | C (the expression amount of the gene was more than ⅔ times the reference value) | C (the expression amount of the gene was more than ⅔ times the reference value) | 81% | high | C (the bacteria number decrease of less than log 1) |  |
| CNc1ccccc1C(=O)OC [Substance (3)] | C (the expression amount of the gene was more than ⅔ times the reference value) | C (the expression amount of the gene was more than ⅔ times the reference value) | C (the expression amount of the gene was more than ⅔ times the reference value) | C (the expression amount of the gene was more than ⅔ times the reference value) | C (the expression amount of the gene was more than ⅔ times the reference value) | C (the expression amount of the gene was more than ⅔ times the reference value) | 91% | high | C (the bacteria number decrease of less than log 1) |  |
| CCCCCCCCCC=O [Substance (1)] | B (the expression amount of the gene was more than ½ times and ⅔ times or less the reference value) | B (the expression amount of the gene was more than ½ times and ⅔ times or less the reference value) | A (the expression amount of the gene was ½ times or less the reference value) | A (the expression amount of the gene was ½ times or less the reference value) | B (the expression amount of the gene was more than ½ times and ⅔ times or less the reference value) | B (the expression amount of the gene was more than ½ times and ⅔ times or less the reference value) | 100% | high | C (the bacteria number decrease of less than log 1) | decreased |
| O=C[C@H](O)[C@@H](O)[C@H](O)[C@H](O)CO [Substance (5)] | C (the expression amount of the gene was more than ⅔ times the reference value) | C (the expression amount of the gene was more than ⅔ times the reference value) | C (the expression amount of the gene was more than ⅔ times the reference value) | C (the expression amount of the gene was more than ⅔ times the reference value) | C (the expression amount of the gene was more than ⅔ times the reference value) | C (the expression amount of the gene was more than ⅔ times the reference value) | 0% |  | C (the bacteria number decrease of less than log 1) |  |
